Laboratory results published in patent publication US6716833B2, “Acetylenic α-amino acid-based sulfonamide hydroxamic acid tace inhibitors” (priority 1999, dated 2004).
Counter-ions that a name gives are not always drawn. Like-named read-outs stand apart in the source and are kept apart here.

Columns and labels:
Format in all cases: biochemical
MMP-1 = target: T1, MMP-1 (Homo sapiens, UniProt P03956); experiment: MMP-1 inhibition (thiopeptide or fluorescent peptide substrate); settings: read-out: MMP-1 IC50
T1 sequence (P03956 100-469): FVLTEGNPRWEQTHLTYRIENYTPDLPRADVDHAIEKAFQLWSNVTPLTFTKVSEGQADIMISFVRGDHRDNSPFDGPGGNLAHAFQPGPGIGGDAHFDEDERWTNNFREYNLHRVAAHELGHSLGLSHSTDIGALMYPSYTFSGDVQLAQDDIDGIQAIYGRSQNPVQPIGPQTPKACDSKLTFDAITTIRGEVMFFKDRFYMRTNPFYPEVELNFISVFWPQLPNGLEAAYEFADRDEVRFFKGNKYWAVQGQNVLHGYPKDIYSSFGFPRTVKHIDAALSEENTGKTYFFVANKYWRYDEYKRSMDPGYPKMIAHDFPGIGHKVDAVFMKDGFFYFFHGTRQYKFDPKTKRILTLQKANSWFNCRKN

MMP-13 = MMP-13 (Homo sapiens, UniProt P45452); experiment: MMP-13 inhibition (thiopeptide or fluorescent peptide substrate)
[1] = target: TNF-α converting enzyme (TACE) (Homo sapiens, UniProt P78536); experiment: TACE inhibition (fluorescent peptidyl substrate); settings: read-out: TACE IC50
TNF-α converting enzyme (TACE), sequence (P78536 215-824, species assumed): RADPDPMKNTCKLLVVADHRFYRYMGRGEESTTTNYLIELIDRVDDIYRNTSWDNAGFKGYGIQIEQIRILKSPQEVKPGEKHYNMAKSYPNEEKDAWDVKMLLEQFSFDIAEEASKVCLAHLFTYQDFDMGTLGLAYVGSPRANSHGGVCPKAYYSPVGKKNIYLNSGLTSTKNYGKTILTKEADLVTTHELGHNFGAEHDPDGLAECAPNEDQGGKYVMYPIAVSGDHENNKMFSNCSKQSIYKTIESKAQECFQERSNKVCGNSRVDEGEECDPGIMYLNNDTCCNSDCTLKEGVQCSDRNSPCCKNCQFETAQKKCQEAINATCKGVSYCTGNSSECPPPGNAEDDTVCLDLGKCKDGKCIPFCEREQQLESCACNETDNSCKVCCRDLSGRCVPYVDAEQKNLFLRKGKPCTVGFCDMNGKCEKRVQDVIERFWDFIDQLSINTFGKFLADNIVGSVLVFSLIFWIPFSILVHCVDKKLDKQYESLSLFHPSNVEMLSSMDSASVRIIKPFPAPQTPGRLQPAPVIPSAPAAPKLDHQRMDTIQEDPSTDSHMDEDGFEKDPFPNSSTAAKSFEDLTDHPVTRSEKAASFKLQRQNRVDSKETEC

[2] = Table 10, read-out: MMP-13 IC50
[3] = Table 11, read-out: MMP-13 IC50

Row | Structure (SMILES) | IC50 (MMP-1; Table 10) [nM] | IC50 (MMP-13; [2]) [nM] | IC50 ([1]; Table 10) [nM] | IC50 (MMP-1; Table 11) [nM] | IC50 (MMP-13; [3]) [nM] | IC50 ([1]; Table 11) [nM] | other results
1 | CC#CCOc1ccc(S(=O)(=O)NC(C(=O)NO)c2ccc(OCCOCCOC)cc2)cc1 (stereo not drawn) [Example 210, 2-({[4-(2-Butynyloxy)phenyl]sulfonyl}amino)-N-hydroxy-2-{4-[2-(2-methoxyethoxy)ethoxy]phenyl}acetamide] |  |  |  |  |  |  | IC50 (MMP-1): > 10000 nM; IC50 (MMP-13; read-out: MMP-13 IC50): 278 nM; IC50 [1]: 17 nM
2 | CC#CCOc1ccc(S(=O)(=O)N2CCSC3(CCN(Cc4ccccc4)CC3)C2C(=O)NO)cc1 (stereo not drawn) [Example 241, 9-Benzyl-4-{[4-(2-butynyloxy)phenyl]sulfonyl}-N-hydroxy-1-thia-4,9-diazaspiro[5.5]undecane-5-carboxamide] |  |  |  |  |  |  | IC50 (MMP-1; Table 9): 3.1 nM; IC50 (MMP-13; Table 9, read-out: MMP-13 IC50): 0.5 nM; IC50 ([1]; Table 9): 786 nM
3 | CC(C)(C)OC(=O)NCCCCC#CCOc1ccc(S(=O)(=O)N2CCSC(C)(C)[C@@H]2C(=O)NO)cc1 [Example 252, tert-Butyl 7-[4-({(3S)-3-[(Hydroxyamino)carbonyl]-2,2-dimethylthiomorpholinyl}sulfonyl)phenoxy]-5-heptynylcarbamate] | 87 | 4.3 | 199 |  |  |  | 
4 | CC1(C)SCCN(S(=O)(=O)c2ccc(OCC#CCCCCN)cc2)[C@H]1C(=O)NO [Example 253] | 92 | 7.3 | 40 |  |  |  | 
5 | CC1(C)SCCN(S(=O)(=O)c2ccc(OCC#Cc3ccccc3)cc2)[C@H]1C(=O)NO [Example 254, (3S)-N-Hydroxy-2,2-dimethyl-4-({4-[(3-phenyl-2-propynyl)oxy]phenyl}sulfonyl)-3-thiomorpholine Carboxamide] | 13 | 11 | 173 |  |  |  | 
6 | C#CCOc1ccc(S(=O)(=O)N2CCSC(C)(C)[C@@H]2C(=O)NO)cc1 [Example 258, (3S)-N-Hydroxy-2,2-dimethyl-4-{[4-(2-propynyloxy)phenyl]sulfonyl}-3-thiomorpholine Carboxamide] |  |  |  |  |  |  | IC50 (MMP-1; Table 9): 0.6 nM; IC50 (MMP-13; Table 9, read-out: MMP-13 IC50): 0.8 nM; IC50 ([1]; Table 9): 19 nM
7 | CCC#CCOc1ccc(S(=O)(=O)N2CCSC(C)(C)[C@@H]2C(=O)NO)cc1 [Example 259, (3S)-N-Hydroxy-2,2-dimethyl-4-{[4-(2-pentynyloxy)phenyl]sulfonyl}-3-thiomorpholine Carboxamide] |  |  |  |  |  |  | IC50 (MMP-1; Table 9): 5.9 nM; IC50 (MMP-13; Table 9, read-out: MMP-13 IC50): 5 nM; IC50 ([1]; Table 9): 28 nM
8 | CC(=O)OCC#CCOc1ccc(S(=O)(=O)N2CCSC(C)(C)[C@@H]2C(=O)NO)cc1 [Example 261, 4-[4-({(3S3-[(Hydroxyamino)carbonyl]-2,2-dimethylthiomorpholinyl}sulfonyl)phenoxy]-2-butynyl Acetate] | 103 | 1.1 | 45 |  |  |  | 
9 | CC1(C)SCCN(S(=O)(=O)c2ccc(OCC#CC#CCO)cc2)[C@H]1C(=O)NO [Example 262, (3S)-N-Hydroxy-4-({4-[(6-hydroxy-2,4-hexadiynyl)oxy]phenyl}sulfonyl)-2,2-dimethyl-3-thiomorpholine Carboxamide] | 9.9 | 14 | 39 |  |  |  | 
10 | C#CC#CCOc1ccc(S(=O)(=O)N2CCSC(C)(C)[C@@H]2C(=O)NO)cc1 [Example 263] | 5.7 | 11 | 42 |  |  |  | 
11 | CC1(C)SCCN(S(=O)(=O)c2ccc(OCC#CCF)cc2)[C@H]1C(=O)NO [Example 264, (3S)-4-({4-[(4-Fluoro-2-butynyl)oxy]phenyl}sulfonyl)-N-hydroxy-2,2-dimethyl-3-thiomorpholine Carboxamide] | 11 | 2.5 | 35 |  |  |  | 
12 | CC(=O)OCCCCC#CCOc1ccc(S(=O)(=O)N2CCSC(C)(C)[C@@H]2C(=O)NO)cc1 [Example 268, 7-[4-({(3S)-3-[(Hydroxyamino)carbonyl]-2,2-dimethylthiomorpholinyl}sulfonyl)phenoxy]-5-heptynyl Acetate] | 29 | 2.9 | 78 |  |  |  | 
13 | CC1(C)SCCN(S(=O)(=O)c2ccc(OCC#CCCCCO)cc2)[C@H]1C(=O)NO [Example 269, (3S)-N-Hydroxy-4-([4-[(7-hydroxy-2-heptynyl)oxy]phenyl}sulfonyl)-2,2-dimethyl-3-thiomorpholinecarboxamide] | 101 | 17 | 53 |  |  |  | 
14 | CC#CCOc1ccc(S(=O)(=O)N2[C@@H](C(=O)NO)C(C)(C)SC[C@@H]2C)cc1 [Example 270, (3S,5S)-4-{[4-(2-Butynyloxy)phenyl]sulfonyl}-N-hydroxy-2,2,5-trimethyl-3-thiomorpholinecarboxamide] |  |  |  | 32 | 61 | 86 | 
15 | CC#CCOc1ccc(S(=O)(=O)N2[C@H](C)CSC(C)(C)[C@@H]2C(=O)NO)cc1 [Example 271, (3S,5R)-4-{[4-(2-Butynyloxy)phenyl]sulfonyl}-N-hydroxy-2,2,5-trimethyl-3-thiomorpholinecarboxamide] |  |  |  | 47 | 88 | 45 | 
16 | CC#CCOc1ccc(S(=O)(=O)N2C[C@H](CC(=O)OC(C)(C)C)SC(C)(C)[C@@H]2C(=O)NO)cc1 [Example 277, tert-Butyl{(2S,5S)-4-{[4-(2-butynyloxy)phenyl]sulfonyl}-5-[(hydroxyamino)carbonyl]-6,6-dimethylthiomorpholinyl}acetate] |  |  |  | 7.8 | 7.6 | 234 | 
17 | CC#CCOc1ccc(S(=O)(=O)N2C[C@H](CC(=O)N3CCN(C)CC3)SC(C)(C)[C@@H]2C(=O)NO)cc1 [Example 283, (3S,6S)-4-{[4-(2-Butynyloxy)phenyl]sulfonyl}-N-hydroxy-2,2-dimethyl-6-[2-(4-methyl-1-piperazinyl)-2-oxoethyl]-3-thiomorpholinecarboxamide hydrochloride] |  |  |  | 28 | 23 | 143 | 
18 | CC#CCOc1ccc(S(=O)(=O)N2CCNCCC2C(=O)NO)cc1 (stereo not drawn) [Example 292, 4-{[4-(2-Butynyloxy)phenyl]sulfonyl}-N-hydroxy-1,4-diazepane-5-carboxamide] |  |  |  |  |  |  | IC50 (MMP-1): 274 nM; IC50 (MMP-13; read-out: MMP-13 IC50): 33 nM; IC50 [1]: 24 nM
19 | CC#CCOc1ccc(S(=O)(=O)N2CCN(C)CCC2C(=O)NO)cc1 (stereo not drawn) [Example 293, 4-{[4-(2-Butynyloxy)phenyl]sulfonyl}-N-hydroxy-1-methyl-1,4-diazepane-5-carboxamide] |  |  |  |  |  |  | IC50 (MMP-1): 238 nM; IC50 (MMP-13; MMP-13 IC50): 21 nM; IC50 [1]: 23 nM

Continued, in another order:

Row | IC50 (MMP-1; Table 10) [nM] | IC50 (MMP-13; [2]) [nM] | IC50 ([1]; Table 10) [nM] | IC50 (MMP-1; Table 11) [nM] | IC50 (MMP-13; [3]) [nM] | IC50 ([1]; Table 11) [nM] | Structure (SMILES) | other results
20 |  |  |  | 17 | 6.7 | 20 | CC#CCOc1ccc(S(=O)(=O)N2C[C@H](CC(=O)O)SC(C)(C)[C@@H]2C(=O)NO)cc1 [Example 278, [(2S,5S)-4-{[4-(2-Butynyloxy)phenyl]sulfonyl}-5-[(hydroxyamino)carbonyl]-6,6-dimethylthiomorpholinyl}acetic Acid] | 
21 |  |  |  | 21 | 4.5 | 46 | CC#CCOc1ccc(S(=O)(=O)N2C[C@H](CC(=O)NO)SC(C)(C)[C@@H]2C(=O)NO)cc1 [Example 279, (3S,6S)-4-{[4-(2-Butynyloxy)phenyl]sulfonyl}-N-hydroxy-6-[2-(hydroxyamino)-2-oxoethyl]-2,2-dimethyl-3-thiomorpholinecarboxamide] | 
22 |  |  |  | 35 | 29 | 42 | CC#CCOc1ccc(S(=O)(=O)N2C[C@H](CC(N)=O)SC(C)(C)[C@@H]2C(=O)NO)cc1 [Example 280, (3S,6S)-6-(2-Amino-2-oxoethyl)-4-{[4-(2-butynyloxy)phenyl]sulfonyl}-N-hydroxy-2,2-dimethyl-3-thiomorpholinecarboxamide] | 
23 |  |  |  | 50 | 23 | 130 | CC#CCOc1ccc(S(=O)(=O)N2C[C@H](CC(=O)N(C)C)SC(C)(C)[C@@H]2C(=O)NO)cc1 [Example 281, (3S,6S)-4-{[4-(2-Butynyloxy)phenyl]sulfonyl}-6-[2-(dimethylamino)-2-oxoethyl]-N-hydroxy-2,2-dimethyl-3-thiomorpholinecarboxamide] | 
24 |  |  |  | 25 | 20 | 95 | CC#CCOc1ccc(S(=O)(=O)N2C[C@H](CC(=O)N3CCOCC3)SC(C)(C)[C@@H]2C(=O)NO)cc1 [Example 282, (3S,6S)-4-{[4-(2-Butynyloxy)phenyl]sulfonyl}-N-hydroxy-2,2-dimethyl-6-[2-(4-morpholinyl)-2-oxoethyl]-3-thiomorpholinecarboxamide] | 
25 |  |  |  | 31 | 76 | 125 | CC#CCOc1ccc(S(=O)(=O)N2C[C@H](CC(=O)NCCN(C)C)SC(C)(C)[C@@H]2C(=O)NO)cc1 [Example 284, (3S,6S)-4-{[4-(2-Butynyloxy)phenyl]sulfonyl}-6-(2-{[2-(dimethylamino)ethyl]amino}-2-oxoethyl)-N-hydroxy-2,2-dimethyl-3-thiomorpholinecarboxamide] | 
26 |  |  |  | 316 | 271 | 16 | CC#CCOc1ccc(S(=O)(=O)N2C=CSC(C)(C)[C@@H]2C(=O)NO)cc1 [Example 379, (3S)-4-{[4-(2-Butynyloxy)phenyl]sulfonyl}-N-hydroxy-2,2-dimethyl-3,4-dihydro-2H-1,4-thiazine-3-carboxamide] | 
